Structures can show the parent of a compound that is named as a salt.
Molecular target: T1, Human IP6K1 (Homo sapiens, UniProt Q92551)
T1 construct: GST (N, cleaved yes); made in house; host or cells: C43 E. coli, pGEX-6P-2
Assay: IP6K1 high-throughput screen of the Sigma LOPAC (ADP-Glo Max, single point);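 also: final compound concentration 10µM in 5% DMSO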
Assay type: biochemical

[1] = Sigma LOPAC single-point screen, ADP-Glo Max raw signal per well
[2] = Sigma LOPAC single-point screen, Z-score from plate average and StDev
[3] = LOPAC single-point screen, ADP-Glo Max raw signal per well
[4] = LOPAC single-point screen, Z-score from raw signal with plate average and StDev
[5] = LOPAC single-point screen, Z-score against plate average and StDev
[6] = LOPAC single-point screen, ADP-Glo Max luminescence raw signal per well
[7] = LOPAC single-point screen, Z-score relative to plate average and StDev
[8] = LOPAC single-point screen, Z-score from plate average and StDev

T1 sequence (Q92551 whole entry): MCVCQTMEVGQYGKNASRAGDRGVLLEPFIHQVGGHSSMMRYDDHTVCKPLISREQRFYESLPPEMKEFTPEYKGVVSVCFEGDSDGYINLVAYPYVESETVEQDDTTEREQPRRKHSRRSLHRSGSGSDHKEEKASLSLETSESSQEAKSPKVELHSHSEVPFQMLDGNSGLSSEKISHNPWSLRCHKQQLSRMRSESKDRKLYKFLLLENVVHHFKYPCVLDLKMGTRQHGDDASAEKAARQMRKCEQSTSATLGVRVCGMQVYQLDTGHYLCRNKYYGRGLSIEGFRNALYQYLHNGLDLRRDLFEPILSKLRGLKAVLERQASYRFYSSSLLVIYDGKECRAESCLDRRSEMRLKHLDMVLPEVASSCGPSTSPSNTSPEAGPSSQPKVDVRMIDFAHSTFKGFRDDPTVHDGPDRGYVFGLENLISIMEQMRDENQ

## COc1ccccc1N1CCN(CCN(C(=O)c2ccc(I)cc2)c2ccccn2)CC1.Cl [p-MPPI hydrochloride]
[1]
  Raw Signal: 60360
[2]
  Z-score: 1.003

## COc1cc2c(cc1OC)-c1c/c(=N\c3c(C)cc(C)cc3C)n(C)c(=O)n1CC2 [Trequinsin hydrochloride]
[3]
  Raw Signal: 54369
[4]
  Z-score: -0.3215

## CCCCCCCCCCCCCCSCC(=O)O [Tetradecylthioacetic acid]
[3]
  Raw Signal: 56618
[5]
  Z-score: 0.1154

## NC(CCP(=O)(O)O)C(=O)O (racemic) [(±)-2-Amino-4-phosphonobutyric acid]
[3]
  Raw Signal: 55594
[4]
  Z-score: -0.4085

## C[C@]12CC[C@H](OS(=O)(=O)[O-])CC1=CC[C@@H]1[C@@H]2CC[C@]2(C)C(=O)CC[C@@H]12.[Na+] [Dehydroisoandrosterone 3-sulfate sodium]
[3]
  Raw Signal: 55598
[5]
  Z-score: 0.08752

## CC(C)NNC(=O)c1ccncc1.O=P(O)(O)O [Iproniazid phosphate]
[1]
  Raw Signal: 60567
[2]
  Z-score: 1.037

## CNC(=O)[C@H]1O[C@@H](n2cnc3c(NCc4cccc(I)c4)ncnc32)[C@H](O)[C@@H]1O [IB-MECA]
[6]
  Raw Signal: 49701
[7]
  Z-score: -0.7885

## CC(=O)NNC(=O)N1Cc2ccccc2Oc2ccc(Cl)cc21 [SC 19220]
[1]
  Raw Signal: 57783
[2]
  Z-score: 0.3418

## CC(N)C(O)c1ccc(O)c(O)c1 (single isomer, unassigned; (-)) [(-)-alpha-Methylnorepinephrine]
[6]
  Raw Signal: 45337
[7]
  Z-score: -1.996

## c1ccc(C2CC2)c(OCC2=NCCN2)c1 [Cirazoline hydrochloride]
[6]
  Raw Signal: 48676
[7]
  Z-score: -1.318

## COc1ccc2[nH]c(I)c(CCNC(C)=O)c2c1 [2-Iodomelatonin]
[3]
  Raw Signal: 55940
[5]
  Z-score: 0.157

## Br.Br.N=C(N)SCCN
[3]
  Raw Signal: 59514
[5]
  Z-score: 0.282

## Cl.Cl.Oc1ccc2c3c1O[C@H]1c4[nH]c5c(c4C[C@@]4(O)[C@@H](C2)N(CC2CC2)CC[C@]314)C[C@@]1(O)[C@H]2Cc3ccc(O)c4c3[C@@]1(CCN2CC1CC1)[C@H]5O4 [nor-Binaltorphimine dihydrochloride]
[1]
  Raw Signal: 56488
[2]
  Z-score: 0.3519

## COc1ccccc1N1CCNCC1.Cl
[3]
  Raw Signal: 57311
[5]
  Z-score: 0.2501

## COc1cccc(C(=O)NCCN2CCN(c3ccc(Cl)cc3)CC2)c1
[3]
  Raw Signal: 55564
[4]
  Z-score: -0.4137

## NC(Cc1cccc(-c2ccccc2CP(=O)(O)O)c1)C(=O)O (stereo not drawn)
[3]
  Raw Signal: 56365
[5]
  Z-score: 0.06629

## CN(C)CCC=C1c2ccccc2CCc2ccccc21 [Amitriptyline hydrochloride]
[6]
  Raw Signal: 54808
[7]
  Z-score: -0.5469

## CC(=O)[C@H]1CC[C@H]2[C@@H]3CCC4=CC(=O)CC[C@]4(C)[C@H]3CC[C@]12C [Progesterone]
[3]
  Raw Signal: 53663
[4]
  Z-score: -0.1227

## CC(C)(C)NCC(O)c1ccc(O)c(CO)c1.CC(C)(C)NCC(O)c1ccc(O)c(CO)c1.O=S(=O)(O)O (stereo not drawn) [Albuterol hemisulfate]
[3]
  Raw Signal: 54773
[4]
  Z-score: -0.243

## C[C@@H]1O[C@@H](O[C@H]2C[C@@H](O)[C@]3(CO)[C@H]4[C@H](O)C[C@]5(C)[C@@H](C6=CC(=O)OC6)CC[C@]5(O)[C@@H]4CC[C@]3(O)C2)[C@H](O)[C@H](O)[C@H]1O [Ouabain]
[1]
  Raw Signal: 56928
[2]
  Z-score: 0.4259

## O=C(Nc1ccccc1)c1cc([N+](=O)[O-])ccc1Cl [GW9662]
[3]
  Raw Signal: 52726
[4]
  Z-score: -0.2802

## O=C(O)c1cc(=O)c2ccccc2[nH]1 [Kynurenic acid]
[3]
  Raw Signal: 53243
[4]
  Z-score: -0.1933

## Cn1c(=O)c2[nH]cnc2n(C)c1=O.Cn1c(=O)c2[nH]cnc2n(C)c1=O.NCCN [Aminophylline ethylenediamine]
[3]
  Raw Signal: 57914
[5]
  Z-score: 0.0001585

## CC(=O)OCC1=C(C(=O)[O-])N2C(=O)[C@@H](NC(=O)CCC[C@@H](N)C(=O)[O-])[C@H]2SC1.[Zn+2] [Cephalosporin C zinc salt]
[3]
  Raw Signal: 57645
[5]
  Z-score: -0.04722

## COc1ccc(C(=O)N2CCCC2=O)cc1 [Aniracetam]
[3]
  Raw Signal: 56032
[4]
  Z-score: -0.3313

## O=C1c2c(O)cc(O)cc2OC(c2ccc(O)c(O)c2)C1O (racemic) [(±)-Taxifolin]
[1]
  Raw Signal: 61241
[2]
  Z-score: 1.0136

## Oligomycin A
[3]
  Raw Signal: 55071
[5]
  Z-score: 0.1138

## CCC1(c2ccc(N)cc2)CCC(=O)NC1=O (racemic) [(±)-p-Aminoglutethimide]
[3]
  Raw Signal: 58613
[5]
  Z-score: 0.1233

## CC(C)(C)c1ccc(C(O)CCCN2CCC(C(O)(c3ccccc3)c3ccccc3)CC2)cc1 (stereo not drawn) [Terfenadine]
[3]
  Raw Signal: 53926
[4]
  Z-score: -0.4076

## O=C(O)[C@@H]1C[C@H](C(=O)O)N1 [cis-Azetidine-2,4-dicarboxylic acid]
[6]
  Raw Signal: 69033
[8]
  Z-score: 1.959

## Cl.Nc1cc(Cl)c(N=C2NCCN2)c(Cl)c1 [p-Aminoclonidine hydrochloride]
[3]
  Raw Signal: 56073
[4]
  Z-score: -0.3241

## N#CC(C#N)=C(N)/C(C#N)=C/c1ccc(O)cc1 [Tyrphostin AG 112]
[6]
  Raw Signal: 52903
[7]
  Z-score: -0.6063

## COC(=O)C1=C(C)NC(C)=C([N+](=O)[O-])C1c1ccccc1C(F)(F)F (racemic) [(±)-Bay K 8644]
[6]
  Raw Signal: 52853
[7]
  Z-score: -0.8912

## OC[C@H]1O[C@@H](n2cnc3c(NC4CCCC4)ncnc32)[C@H](O)[C@@H]1O [N6-Cyclopentyladenosine]
[3]
  Raw Signal: 55487
[4]
  Z-score: -0.4273

## CC(=O)NCCc1c[nH]c2ccccc12 [N-Acetyltryptamine]
[6]
  Raw Signal: 53398
[7]
  Z-score: -0.7952

## Cn1c(=O)c2[nH]c(-c3ccccc3)nc2n(C)c1=O [1,3-Dimethyl-8-phenylxanthine]
[3]
  Raw Signal: 54517
[5]
  Z-score: 0.02075

## CN1C(=O)CCS(=O)(=O)C1c1ccc(Cl)cc1 (stereo not drawn) [Chlormezanone]
[6]
  Raw Signal: 52438
[7]
  Z-score: -0.5542

## O=C(O)/C=C\C(=O)O.O=C(O)/C=C\C(=O)O.c1cc(CN2CCCCC2)cc(OCCCNc2nc3ccccc3s2)c1 [SKF 95282 dimaleate]
[3]
  Raw Signal: 54088
[4]
  Z-score: -0.3761

## NCCc1c[nH]c2ccc(C(N)=O)cc12.O=C(O)/C=C\C(=O)O [5-Carboxamidotryptamine maleate]
[6]
  Raw Signal: 52599
[7]
  Z-score: -0.5215

## COc1ccc2c(c1OC)C(=O)OC2C1c2cc3c(cc2CCN1C)OCO3 (single isomer, unassigned; (+)) [(+)-Hydrastine]
[3]
  Raw Signal: 55977
[5]
  Z-score: 0.1645

## N[C@@H](C(=O)N[C@@H]1C(=O)N2C(C(=O)O)=C(Cl)CS[C@H]12)c1ccccc1 [Cefaclor]
[3]
  Raw Signal: 57158
[4]
  Z-score: -0.133

## CC(C)Cc1ccc(C(C)C(=O)O)cc1 (racemic) [(±)-Ibuprofen]
[1]
  Raw Signal: 57086
[2]
  Z-score: 0.4524

## CC[C@H](C)C(=O)O[C@H]1CCC=C2C=C[C@H](C)[C@H](CC[C@@H]3C[C@@H](O)CC(=O)O3)[C@H]21 [Mevastatin]
[6]
  Raw Signal: 50064
[7]
  Z-score: -0.7275

## CN[C@@H](C)[C@H](O)c1ccccc1.CN[C@@H](C)[C@H](O)c1ccccc1.O=S(=O)(O)O [(-)-Ephedrine hemisulfate]
[3]
  Raw Signal: 54708
[4]
  Z-score: -0.09323

## CC(N)(C(=O)O)c1ccc(C(=O)O)cc1 (racemic) [(±)-alpha-Methyl-4-carboxyphenylglycine]
[3]
  Raw Signal: 51961
[4]
  Z-score: -0.4087

## O=C1NCN(c2ccccc2)C12CCN(CCCC(c1ccc(F)cc1)c1ccc(F)cc1)CC2 [Fluspirilene]
[6]
  Raw Signal: 52037
[7]
  Z-score: -0.6357

## COc1ccc2[nH]cc(CCN)c2c1.Cl [O-Methylserotonin hydrochloride]
[3]
  Raw Signal: 53655
[4]
  Z-score: -0.1241

## c1ccc(C2CN3CCSC3=N2)cc1 (stereo not drawn) [Tetramisole hydrochloride]
[6]
  Raw Signal: 64300
[8]
  Z-score: 1.608

## O=C1Nc2ccccc2/C1=C1/Nc2ccccc2/C1=N\O [Indirubin-3 -oxime]
[1]
  Raw Signal: 58050
[2]
  Z-score: 0.5855

## C[C@@H]1O[C@H](C[N+](C)(C)C)CS1.[I-] [OXA-22 iodide]
[1]
  Raw Signal: 57438
[2]
  Z-score: 0.4612

## O=c1c2ccccc2nc2n1CCc1c-2[nH]c2ccccc12 [Rutaecarpine]
[3]
  Raw Signal: 54118
[4]
  Z-score: -0.3703

## Br.CCCN(CCC)[C@@H]1CCc2ccc(O)cc2C1 [R-(+)-7-Hydroxy-DPAT hydrobromide]
[6]
  Raw Signal: 62909
[8]
  Z-score: 1.572

## CCCn1c(=O)c2[nH]c(-c3ccc(S(=O)(=O)O)cc3)nc2n(CCC)c1=O [1,3-Dipropyl-8-p-sulfophenylxanthine]
[6]
  Raw Signal: 54862
[7]
  Z-score: -0.5374

## O=C(c1ccc(OCCN2CCCCC2)cc1)c1c(-c2ccc(O)cc2)sc2cc(O)ccc12 [Raloxifene hydrochloride]
[3]
  Raw Signal: 54124
[4]
  Z-score: -0.3691

## C[N+]1(C)CCN(c2ccccc2)CC1.[I-]
[3]
  Raw Signal: 55993
[5]
  Z-score: 0.1677

## Cl.OC1CCCCC1N1CCC(c2ccccc2)CC1 (racemic) [(±)-Vesamicol hydrochloride]
[6]
  Raw Signal: 53363
[7]
  Z-score: -0.5169

## Cn1ccc2cc3c(cc21)CCN3C(=O)Nc1cccnc1 [SB 206553 hydrochloride]
[3]
  Raw Signal: 56981
[5]
  Z-score: 0.186

## O=C(C1CCCCC1)N1CC(=O)N2CCc3ccccc3C2C1 (stereo not drawn) [Praziquantel]
[3]
  Raw Signal: 53749
[4]
  Z-score: -0.1083

## C[N+](C)(C)CCOC(N)=O [Carbachol]
[1]
  Raw Signal: 62361
[2]
  Z-score: 0.7834

## Cc1cnc(NC(=O)C2=C(O)c3ccccc3S(=O)(=O)N2C)s1 [Meloxicam sodium]
[3]
  Raw Signal: 55155
[5]
  Z-score: 0.128

From PMC5706701, “Development of a homogenous high-throughput assay for inositol hexakisphosphate kinase 1 activity” (PLoS ONE, 2017)
